Tests used:
CYP2B1 [1] = molecular target: T1, CYP2B1 (Rattus norvegicus, UniProt P00176); experiment: (§1) Mechanism based inhibition of rat cytochrome P450 CYP2B1 measured by 7-EFC O-deethylation activity; format: ADME; conditions: rat, probe 7-EFC (O-deethylation)
T1 sequence (P00176 whole entry): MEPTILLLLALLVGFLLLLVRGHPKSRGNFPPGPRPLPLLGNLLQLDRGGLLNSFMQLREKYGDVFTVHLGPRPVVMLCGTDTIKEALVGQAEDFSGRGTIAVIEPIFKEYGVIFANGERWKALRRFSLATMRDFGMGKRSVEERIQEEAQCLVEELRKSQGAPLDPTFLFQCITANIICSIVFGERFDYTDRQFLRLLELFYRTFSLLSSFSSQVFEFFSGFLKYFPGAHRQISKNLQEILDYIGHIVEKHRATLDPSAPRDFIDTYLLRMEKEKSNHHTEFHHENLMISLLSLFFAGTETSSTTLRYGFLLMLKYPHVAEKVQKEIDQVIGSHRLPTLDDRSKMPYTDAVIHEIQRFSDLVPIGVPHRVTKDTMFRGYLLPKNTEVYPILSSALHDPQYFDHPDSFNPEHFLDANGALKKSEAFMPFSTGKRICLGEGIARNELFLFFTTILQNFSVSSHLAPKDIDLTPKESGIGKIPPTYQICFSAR

Cytochrome P450 2B1 [2] = molecular target: T2, Cytochrome P450 2B1 (Rattus norvegicus, UniProt P00176); experiment: as §1; format: ADME
T2 sequence (P00176 whole entry): T1 sequence (P00176 whole entry)

Cytochrome P450 2B1 [3] = molecular target: T2, Cytochrome P450 2B1; experiment: Mechanism based inhibition of rat cytochrome P450 CYP2B1 partition ratio; format: ADME
CYP2B1 [4] = molecular target: T1, CYP2B1; experiment: (§2) Mechanism based inhibition of rat cytochrome P450 CYP2B1 measured by 7-pentoxyresorufin […] activity (PROD); format: ADME; conditions: rat, probe 7-pentoxyresorufin ([…], PROD)
Cytochrome P450 2B1 [5] = molecular target: T2, Cytochrome P450 2B1; experiment: as §2; format: ADME
CYP2B4 = molecular target: T3, CYP2B4 (Oryctolagus cuniculus, UniProt P00178); experiment: (§3) Mechanism based inhibition of rabbit cytochrome P450 CYP2B4 measured by 7-EFC O-deethylation activity; format: ADME; conditions: rabbit, probe 7-EFC (O-deethylation)
T3 sequence (P00178 whole entry): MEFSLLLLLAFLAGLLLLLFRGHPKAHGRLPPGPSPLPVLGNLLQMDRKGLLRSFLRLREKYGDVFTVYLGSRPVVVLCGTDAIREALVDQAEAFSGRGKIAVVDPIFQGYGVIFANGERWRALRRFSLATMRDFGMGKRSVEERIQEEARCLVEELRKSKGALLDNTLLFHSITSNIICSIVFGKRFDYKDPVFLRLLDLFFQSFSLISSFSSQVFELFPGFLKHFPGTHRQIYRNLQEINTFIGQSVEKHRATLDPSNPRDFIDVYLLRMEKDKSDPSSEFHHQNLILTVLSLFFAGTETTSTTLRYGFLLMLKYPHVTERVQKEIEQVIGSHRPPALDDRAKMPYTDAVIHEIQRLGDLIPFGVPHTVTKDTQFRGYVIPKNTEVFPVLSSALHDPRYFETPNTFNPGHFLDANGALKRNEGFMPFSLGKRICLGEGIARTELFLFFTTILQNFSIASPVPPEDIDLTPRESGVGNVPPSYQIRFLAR

Cytochrome P450 2B4 = molecular target: T4, Cytochrome P450 2B4 (Oryctolagus cuniculus, UniProt P00178); experiment: as §3; format: ADME
T4 sequence (P00178 whole entry): T3 sequence (P00178 whole entry)

[6] = molecular target: Cytochrome P450 2E1 (Oryctolagus cuniculus) (UniProt P08682); experiment: Mechanism based inhibition of rabbit cytochrome P450 CYP2E1 measured by 7-EFC O-deethylation activity; conditions: probe 7-EFC (O-deethylation)
Cytochrome P450 2B1 [7] = molecular target: T2, Cytochrome P450 2B1; experiment: Mechanism based inhibition of rat cytochrome P450 CYP2B1 measured by androstenedione 16-beta-hydroxylation and R- and S- warfarin hydroxylation; format: ADME
CYP2D6 = CYP2D6 (Homo sapiens, UniProt P10635); experiment: (§4) Mechanism based inhibition of human cytochrome P450 2D6 measured by dextromethorphan O-demethylation using human liver microsomes; format: ADME, Microsome; conditions: human, human liver microsomes, probe dextromethorphan
Cytochrome P450 2D6 = Cytochrome P450 2D6 (Homo sapiens, UniProt P10635); experiment: as §4; format: ADME, Microsome
Cytochrome P450 3A4 [8] = molecular target: T5, Cytochrome P450 3A4 (Homo sapiens, UniProt P08684); experiment: Mechanism based inhibition of human cytochrome P450 3A4 measured by lovastatin 6'-beta hydroxylase activity; format: ADME
CYP1A2 [9] = molecular target: T6, CYP1A2 (Homo sapiens, UniProt P05177); experiment: Mechanism based inhibition of human cytochrome P450 1A2; format: ADME
T6 sequence (P05177 whole entry): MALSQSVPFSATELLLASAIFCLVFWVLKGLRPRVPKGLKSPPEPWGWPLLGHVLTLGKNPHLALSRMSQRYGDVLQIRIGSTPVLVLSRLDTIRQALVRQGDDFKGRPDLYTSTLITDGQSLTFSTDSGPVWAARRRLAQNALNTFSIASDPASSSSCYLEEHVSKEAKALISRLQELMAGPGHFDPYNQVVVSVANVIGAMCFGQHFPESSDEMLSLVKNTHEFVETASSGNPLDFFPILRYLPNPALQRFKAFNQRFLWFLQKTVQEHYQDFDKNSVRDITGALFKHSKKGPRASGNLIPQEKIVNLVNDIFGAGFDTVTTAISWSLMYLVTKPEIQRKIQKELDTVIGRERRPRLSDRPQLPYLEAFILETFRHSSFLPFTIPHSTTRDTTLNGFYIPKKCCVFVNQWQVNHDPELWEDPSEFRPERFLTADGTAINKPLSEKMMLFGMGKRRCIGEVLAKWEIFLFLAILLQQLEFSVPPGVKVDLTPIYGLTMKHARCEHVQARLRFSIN

Cytochrome P450 3A4 [10] = molecular target: T5, Cytochrome P450 3A4; experiment: Mechanism based inhibition of human cytochrome P450 3A4 measured in vivo; format: ADME, organism-based
CYP3A4 = CYP3A4 (Homo sapiens, UniProt P08684); experiment: (§5) Mechanism based inhibition of human cytochrome P450 3A4; format: ADME; conditions: human
Cytochrome P450 3A4 [11] = molecular target: T5, Cytochrome P450 3A4; experiment: as §5; format: ADME
CYP1A2 [12] = molecular target: T6, CYP1A2; experiment: (§6) Mechanism based inhibition of human cytochrome P450 1A2 measured by 7-ethoxyresorufin O-deethylation (EROD); conditions: human, probe 7-ethoxyresorufin (O-deethylation, EROD)
Cytochrome P450 1A2 = molecular target: T7, Cytochrome P450 1A2 (Homo sapiens, UniProt P05177); experiment: as §6
T7 sequence (P05177 whole entry): T6 sequence (P05177 whole entry)

T5 sequence (P08684 whole entry): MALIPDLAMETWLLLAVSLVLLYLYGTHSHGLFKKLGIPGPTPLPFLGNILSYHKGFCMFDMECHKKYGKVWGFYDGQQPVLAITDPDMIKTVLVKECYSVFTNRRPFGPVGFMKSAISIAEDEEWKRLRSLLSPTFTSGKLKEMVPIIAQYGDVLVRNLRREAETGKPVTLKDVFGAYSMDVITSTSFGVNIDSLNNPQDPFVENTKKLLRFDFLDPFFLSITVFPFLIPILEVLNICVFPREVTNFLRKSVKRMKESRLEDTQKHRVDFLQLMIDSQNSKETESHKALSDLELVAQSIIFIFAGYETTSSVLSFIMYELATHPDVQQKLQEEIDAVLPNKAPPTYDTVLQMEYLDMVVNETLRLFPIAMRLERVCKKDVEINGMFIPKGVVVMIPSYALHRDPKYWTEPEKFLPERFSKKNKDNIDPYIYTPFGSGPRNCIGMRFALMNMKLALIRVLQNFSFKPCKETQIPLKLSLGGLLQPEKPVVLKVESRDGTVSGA
CYP2D6, sequence (P10635 whole entry): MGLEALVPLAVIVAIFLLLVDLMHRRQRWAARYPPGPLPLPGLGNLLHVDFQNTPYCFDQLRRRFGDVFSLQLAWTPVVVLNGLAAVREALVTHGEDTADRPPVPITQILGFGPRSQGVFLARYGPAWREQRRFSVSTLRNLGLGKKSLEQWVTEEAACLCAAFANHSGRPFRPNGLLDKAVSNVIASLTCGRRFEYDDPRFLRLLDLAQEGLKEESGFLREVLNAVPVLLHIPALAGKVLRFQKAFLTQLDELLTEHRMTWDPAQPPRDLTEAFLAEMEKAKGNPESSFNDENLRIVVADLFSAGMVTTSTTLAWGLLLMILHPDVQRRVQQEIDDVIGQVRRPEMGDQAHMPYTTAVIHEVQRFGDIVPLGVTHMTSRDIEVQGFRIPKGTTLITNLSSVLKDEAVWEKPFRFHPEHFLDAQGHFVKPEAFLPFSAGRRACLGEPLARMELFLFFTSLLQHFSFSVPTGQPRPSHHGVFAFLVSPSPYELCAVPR
Cytochrome P450 2D6, sequence (P10635 whole entry): as above
Cytochrome P450 2E1 (Oryctolagus cuniculus), sequence (P08682 whole entry, looked up): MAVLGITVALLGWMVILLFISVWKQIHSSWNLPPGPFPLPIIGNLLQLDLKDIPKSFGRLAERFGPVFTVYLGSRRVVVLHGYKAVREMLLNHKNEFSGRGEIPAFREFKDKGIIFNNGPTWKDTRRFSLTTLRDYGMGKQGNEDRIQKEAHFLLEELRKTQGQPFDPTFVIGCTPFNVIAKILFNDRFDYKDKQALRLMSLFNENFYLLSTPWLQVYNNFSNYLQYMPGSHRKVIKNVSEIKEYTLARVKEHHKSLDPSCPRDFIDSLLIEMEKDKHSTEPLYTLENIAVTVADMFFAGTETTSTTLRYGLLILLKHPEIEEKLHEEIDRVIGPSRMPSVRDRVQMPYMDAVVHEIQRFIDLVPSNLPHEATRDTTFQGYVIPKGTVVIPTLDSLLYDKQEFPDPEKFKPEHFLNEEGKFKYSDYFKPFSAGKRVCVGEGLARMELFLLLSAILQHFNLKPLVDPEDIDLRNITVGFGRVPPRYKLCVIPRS
CYP3A4, sequence (P08684 whole entry): as the sequence (P08684 whole entry) above

Question: With `S=C=NCc1ccccc1` [BENZYL ISOTHIOCYANATE] as the compound, how does the kinact (CYP2B1 [1]) read?
Answer: 0.011 s⁻¹

Question: What about the Ki (Cytochrome P450 2B1 [2]) of the same compound?
Answer: 5.8 µM

Question: And the partition_ratio (Cytochrome P450 2B1 [3])?
Answer: 9

Question: With `C#CCN(C)C(C)CCCCC.C#CCN[C@@H](C)CCCCC.C#CCN[C@H](C)CCCCC` (centres undefined) as the compound, how does the kinact (CYP2B1 [4]) read?
Answer: 0.00133 s⁻¹

Question: What about the Ki (Cytochrome P450 2B1 [5]) of the same compound?
Answer: 0.8 µM

Question: For `C#CC(C)(C)C`, which kinact (CYP2B4) is on record?
Answer: 0.00383 s⁻¹

Question: And the Ki (Cytochrome P450 2B4)?
Answer: 75 µM

Question: What about the kinact [6] of the same compound?
Answer: 0.00333 s⁻¹

Question: With `O=C(NCCc1ccc([N+](=O)[O-])cc1)C(F)Cl` (centres undefined) as the compound, how does the mechanism based inhibition (Cytochrome P450 2B1 [7]) read?
Answer: Cytochrome P450 mechanistic inhibitor: PMID 1971568

Question: With `C#Cc1ccc2ccc(=O)oc2c1` as the compound, how does the partition_ratio (Cytochrome P450 2B1 [3]) read?
Answer: 25

Question: What does the source list for `Fc1cnc(N2CCN(CC3=NC(c4ccccc4)=NC3)CC2)nc1`?
Answer: kinact (CYP2D6): 0.00233 s⁻¹; Ki (Cytochrome P450 2D6): 4.8 µM

Question: Which mechanism based inhibition (Cytochrome P450 3A4 [8]) does the source give for `O=C(NC(/C=C/S(=O)(=O)c1ccccc1)CCc1ccccc1)C(Cc1ccccc1)NC(=O)N1CCOCC1` (centres undefined) here?
Answer: Cytochrome P450 mechanistic inhibitor: PMID 11038163

Question: With `Cc1nc2c([nH]1)c(=O)n(C)c(=O)n2CC1CCCCC1` as the compound, how does the kinact (CYP1A2 [9]) read?
Answer: 0.0148 s⁻¹

Question: Which mechanism based inhibition (Cytochrome P450 3A4 [10]) does the source give for `CN(C)c1ccc([C@H]2C[C@@]3(C)[C@@H](CC[C@@]3(O)/C=C\CO)[C@@H]3CCC4=CC(=O)CCC4=C32)cc1` [LILOPRISTONE] here?
Answer: Cytochrome P450 mechanistic inhibitor: PMID 9697076

Question: What does the source list for `CCc1c2c(nc3ccc(O)cc13)-c1cc3c(c(=O)n1C2)COC(=O)[C@]3(O)CC` [7-ETHYL-10-HYDROXYCAMPTOTHECIN]?
Answer: kinact (CYP3A4): 0.00167 s⁻¹; Ki (Cytochrome P450 3A4 [11]): 26 µM

Question: Which kinact (CYP1A2 [12]) does the source give for `Cc1c(-c2cnccn2)ssc1=S` [OLTIPRAZ] here?
Answer: 0.00317 s⁻¹

Question: And the Ki (Cytochrome P450 1A2)?
Answer: 9 µM

— ChEMBL document CHEMBL1743341, “Cytochrome p450 enzymes mechanism based inhibitors: common sub-structures and reactivity” (Curr Drug Metab, 2005)
